# In PMC12096669, “Structural isomerisation affects the antitubercular activity of adamantyl-isoxyl adducts” (Journal of Enzyme Inhibition and Medicinal Chemistry, 2025):
# Like-named read-outs stand apart in the source and are kept apart here.
# Assays:
# [1] = test system: M. smegmatis mc^2155 mmpL3 knockout strain expressing MmpL3-Mtb-G253E; design: method as in PMID 22344175; details: M. smegmatis mc^2155, MmpL3-Mtb-G253E in a mmpL3 knockout strain; cited from earlier work
# [2] = test system: Mtb mc^27092 pMV261-mmpL3; test: microbe, parasite or virus in culture; format: cell-based, Mycobacterium tuberculosis; details: for MIC: Mycobacterium tuberculosis, read-out: Mtb MIC95
# [3] = test system: Mtb mc^27092 pMV261-desA3; test: microbe, parasite or virus in culture; format: cell-based; details: Mycobacterium tuberculosis, read-out: Mtb MIC95
# [4] = test system: Mtb mc^27092 pMV261- ethA; test: microbe, parasite or virus in culture; format: cell-based; details: Mycobacterium tuberculosis, read-out: Mtb MIC95
# Mtb mc^28256 pMV261 = test: microbe, parasite or virus in culture; format: cell-based; details: Mycobacterium tuberculosis, read-out: Mtb MIC95
# Mtb mc^28245 pMV261 = test: microbe, parasite or virus in culture; format: cell-based
# [5] = test system: Mtb mc^27092 pMV261-pks13; test: microbe, parasite or virus in culture; format: cell-based; details: Mycobacterium tuberculosis, read-out: Mtb MIC95
# [6] = test system: Mtb mc^27092 pMV261-hadABC; test: microbe, parasite or virus in culture; format: cell-based; details: Mycobacterium tuberculosis, read-out: Mtb MIC95
# Mtb mc^28247 pMV261 = test: microbe, parasite or virus in culture; format: cell-based
# Mtb mc^28250 pMV261 = test: microbe, parasite or virus in culture; format: cell-based
# [7] = Mycobacterium tuberculosis; read-out: Mtb MIC95
# [8] = Mycobacterium tuberculosis, read-out: Mtb MIC95
SMILES,increase in the resistance [1] [fold],"MIC ([2]; mc^27092 pMV261-mmpL3, REMA) [µg/mL]","MIC ([3]; mc^27092 pMV261-desA3, REMA) [µg/mL]","MIC ([4]; mc^27092 pMV261- ethA, REMA) [µg/mL]","MIC (Mtb mc^28256 pMV261; mc^28256 pMV261, REMA) [µg/mL]",MIC (Mtb mc^28245 pMV261; [7]) [µg/mL],"MIC ([5]; mc^27092 pMV261-pks13, REMA) [µg/mL]","MIC ([6]; mc^27092 pMV261-hadABC, REMA) [µg/mL]",MIC (Mtb mc^28247 pMV261; [7]) [µg/mL],MIC (Mtb mc^28250 pMV261; [7]) [µg/mL],increase in resistance on overexpression of MmpL3 [2] [fold],MIC [2] [µg/mL],MIC [3] [µg/mL],MIC [4] [µg/mL],MIC (Mtb mc^28256 pMV261) [µg/mL],MIC (Mtb mc^28245 pMV261; [8]) [µg/mL],MIC [5] [µg/mL],MIC [6] [µg/mL],MIC (Mtb mc^28247 pMV261; [8]) [µg/mL],MIC (Mtb mc^28250 pMV261; [8]) [µg/mL]
O=C(Nc1ccc(F)c(F)c1F)NC1C2CC3CC(C2)CC1C3 (stereo not shown) [AU1235],2,,,,,,,,,,,,,,,,,,,
"CC(C)CCOc1ccc(NC(=S)NC23CC4CC(CC(C4)C2)C3)cc1 [Ad-1-ISO, 1-((3s,5s,7s)-adamantan-1-yl)-3–(4-(isopentyloxy)phenyl)thiourea]",,1.16,1.07,1.2,1.13,1.11,1.11,1.09,1.08,1.12,,,,,,,,,,
"CC(C)CCOc1ccc(NC(=S)NC2C3CC4CC(C3)CC2C4)cc1 (stereo not shown) [Ad-2-ISO, 1-((1r,3r,5r,7r)-adamantan-2-yl)-3–(4-(isopentyloxy)phenyl)thiourea]",,4.2,2.93,2.63,2.9,3.55,3.37,4.34,2.5,3.1,~2,,,,,,,,,
"CC[C@@H](CO)NCCN[C@@H](CC)CO [EMB, Ethambutol]",,2.02,2.95,2.09,1.88,1.82,2,2.54,1.97,1.89,,,,,,,,,,
"CCc1cc(C(N)=S)ccn1 [ETH, ethionamide]",,,,,,,,,,,,0.99,1.02,0.65,1.08,0.98,1.01,2.02,0.98,1.02
"NNC(=O)c1ccncc1 [INH, isoniazid]",,0.04,0.04,0.04,,,0.04,0.04,0.04,,,,,,,,,,,
"CC(C)CCOc1ccc(NC(=S)Nc2ccc(OCCC(C)C)cc2)cc1 [ISO, 4,4′-diisoamyloxydiphenylthiourea]",,0.21,0.26,0.09,0.19,0.18,0.34,0.71,0.34,0.2,,,,,,,,,,
"CC(=O)NC[C@H]1CN(c2ccc(N3CCOCC3)c(F)c2)C(=O)O1 [LZD, linezolid]",,0.86,,,0.66,0.9,0.93,0.72,0.88,0.77,,,,,,,,,,
"CO[C@H]1/C=C/O[C@@]2(C)Oc3c(C)c(O)c4c(O)c(c(/C=N/N5CCN(C)CC5)c(O)c4c3C2=O)NC(=O)/C(C)=C\C=C\[C@H](C)[C@H](O)[C@@H](C)[C@@H](O)[C@@H](C)[C@H](OC(C)=O)[C@@H]1C [RIF, rifampicin]",,0.06,0.06,0.06,,0.05,0.06,0.06,,,,,,,,,,,,
"CC(C)=CCC/C(C)=C/CNCCNC1C2CC3CC(C2)CC1C3 (stereo not shown) [SQ109, N-Adamantan-2-yl-N’-((E)-3,7-dimethylocta-2,6-dienyl)ethane-1,2-diamine]",,0.74,,,0.27,0.31,0.31,0.31,0.3,0.3,,,,,,,,,,
